# US4124710A, “Acetamidoxime derivatives and use thereof” (priority 1976, dated 1978)
# Where a name gives a salt, the structure may show the parent alone.
# Experiments:
# [1] = tested on: hypertensive effect of acetylcholine in dog; assay: Ganglioplegic activity: hypertensive effect of acetylcholine in anaesthetized atropinized dog
# [2] = tested on: male rats in which chronic renal hypertension had been induced; assay: Fall in arterial pressure in rats rendered hypertensive by the GROLLMAN method (chronic renal hypertension); type: in vivo, rat; conditions: intragastric; for Fall in A.P.: 25 mg/kg, measured before and 1-6 hours after administration
# Protocol: The first test was carried out on male rats weighing about 120g in which chronic renal hypertension had been induced by the Grollman technique [Proc. Soc. exp.
# According to this technique, the animals are anaesthetized with ether and one kidney is displaced from its site without being detached from the body, the suprarenal gland having been first liberated from the kidney but otherwise left intact. The kidney is then bound with twine in the form of a figure eight, just tightly enough to alter slightly the ellipsoid shape of the organ. Ten days later, the other kidney is completely removed together with its suprarenal gland.
# Arterial pressure was measured immediately before and 1,2,3,4,5 and 6 hours after administration.
# Rat = assay: Acute toxicity in rats; type: in vivo; conditions: 12 days observation
# Protocol: (§1) Finally, acute toxicity trials were carried out on rats and mice which were kept under observation for 12 days following one single administration.
# [3] = tested on: rats with hypertension of endocrine origin; assay: Hypertension of endocrine origin (DOCA; technique of STANTON and WHITE); type: in vivo, rat; conditions: intragastric
# Protocol: (§2) All of these tests were performeed on rats which were in a state of hypertension. Each test was divided into two series. In the first series, one single dose of the product under study was administered by intragastric route to each animal and the arterial pressure of the latter was measured every hour for six hours after administration. In the second series the product under study was given by the same route every day for eleven consecutive days and arterial pressure was measured daily throughout this period. The amount of product administered varied from one animal to another.
# (2) Hypertension of endocrine origin
# This test was performed in accordance with the technique of STANTON and WHITE (Arch. Int. Pharmacodyn. 154, 351, 1965).
# Female rats weighing 90 ± 10g were anaesthetized with ether and hypertension was produced by ablation of one kidney and the corresponding adrenal gland, after which a dose of 50 mg/kg of desoxycorticosterone acetate (DOCA) was administered subcutaneously five days a week over a period of four weeks. Throughout this period the drinking-water given to the rats contained 1% of NaCl. This was replaced by ordinary tap-water when administration of the desoxycorticosterone ceased.
# Under these circumstances, arterial pressure rose to about 200 mm.Hg.
# male albino rats = assay: Volumetric urinary excretion (technique of LIPSCHITZ et al.); type: in vivo, rat; conditions: intragastric, 6 hours, % of volume of saline administered
# Protocol: 1 -- Volumetric urinary excretion
# This test was performed according to the technique of LIPSCHITZ et al. (J. Pharmacol. exp. Therap. 79, 97, 1943), by using groups of 20 male albino rats weighing from 150 to 200g which had been deprived of food and drink for 18 hours.
# The substance to be tested was given by intragastric route immediately after the intragastric administration of 50 ml/kg of a 9°/°° solution of NaCl.
# A control group also of 20 rats only received the saline solution. The total amount of urine excreted during the 6 hours following administration was collected and measured.
# Mouse = assay: Acute toxicity in mice; type: in vivo; conditions: 12 days observation
# Protocol: as §1
# [4] = tested on: nictitating membrane of an anaesthetized cat; assay: Ganglioplegic activity: contractions of the nictitating membrane of anaesthetized cat; type: in vivo; conditions: two intravenous doses of 5 mg/kg
# Protocol: (1) The arterial pressure and the tonus of the nictitating membrane of an anaesthetized cat was first noted, after which the contractile reaction of the membrane to an intravenous injection of adrenaline and to electric stimulation of the preganglionic fibre of the cervical sympathetic nerve was tested.
# [5] = tested on: rats with neurogenic hypertension; assay: Neurogenic hypertension (technique of KRIEGER and IMBS); type: in vivo, rat; conditions: intragastric
# Protocol: as §2
# (4) Neurogenic hypertension
# This test was performed in accordance with the technique of KRIEGER and IMBS (Circul. Res. 15, 511, 1964 and C.R. Soc. Biol. 162, 778, 1968).
# Male rats weighing from 200 to 250g were anaesthetized with ether and 0.5mg of atropine sulphate was administered to them intraperitoneally.
# The rats were fixed in a supine position and an incision was made in the front of the neck to expose the neuromuscular bundle comprising the sumpathetic and vagus nerve and the common carotid arteries.
# The vagus nerves and the carotid arteries were then carefully isolated while one centimeter was cut out of the sympathetic nerves. […] The area in which the carotids divide was exposed by pulling aside the appropriate neck muscles (sternocleidomastoideus and omohyoideus). The vessels thus liberated were painted with 10% phenol in ethanol. In this way, complete sympathetic denervation was obtained.
# A marked rise in arterial pressure was obtained after 5 to 8 days.
# [6] = tested on: rats with genetic hypertension; assay: Genetic hypertension (technique of OKAMOTO and AOKI); type: in vivo, rat; conditions: for Maximum fall in A.P.: intragastric
# Protocol: as §2
# This test was performed in accordance with the technique of OKAMOTO and AOKI (Jap. Circul. J., 27, 282, 1963), using male rats belonging to a race which has been specially bred to produce animals having high blood pressure.
# [7] = tested on: experimentally induced hypertension; assay: Experimentally induced hypertension, general statements on anti-hypertensive activity; conditions: rat, in vivo
# Protocol: as §2
# albino male rats = assay: Ionic ratio in urinary excretion (technique of AMBROSILI et al.); type: in vivo, rat; conditions: for Na^+ /K^+ Ratio / K^+ excretion / Na^+ excretion / Urinary excretion: intragastric, 4 hours; for Na^+ /K^+ Ratio: control 1; for K^+ excretion: control 18.5; for Na^+ excretion: control 27.3; for Urinary excretion: control 40
# Protocol: 2 -- Ionic ratio in urinary excretion
# This test was performed according to the technique of AMBROSILI et al. (Minerva Nepol. 11,56, 1964).
# The substance to be tested was given by intragastric route immediately after the intragastric administration of 50 ml/kg of distilled water to groups of 20 albino male rats weighing 140 { 10g which had been fasting for 18 hours.
# A control group, also comprising 20 animals, only received the distilled water.
# The total amount of urine excreted during the 4 hours following administration was collected and measured and the total Na^+ and K^+ ion excretion values determined.
# These values were then converted to millieequivalents per liter (mEq/l.) in order to obtain the correct Na^+ and K^+ ion excretion figures independently of the increase in the amount of urine.
# The ionic ratio was obtained according to the following formula: [formula]
# [8] = tested on: rats with saline hypertension; assay: Saline hypertension (technique of DAHL, KNUDSEN, HEINE and LEITL); type: in vivo, rat; conditions: intragastric
# Protocol: as §2
# This test was performed in accordance with the technique of DAHL, KNUDSEN, HEINE and LEITL.
# Male rats weighing 55 ± 5g were fed on food containing 8% of NaCl but which was otherwise normal.
# After six weeks of this diet, arterial pressure had risen to about 180 mm.Hg.
# [9] = tested on: experimentally induced hypertension; conditions: rat, in vivo; cited from earlier work
structure (smiles),measurement,setting,value
"C[N+]1(CC(=O)c2ccc(-c3ccccc3)cc2)[C@@H]2CC[C@H]1C[C@@H](OC(=O)[C@H](CO)c1ccccc1)C2 (stereo partly shown) [phenthonium, reference compound]",effect on the hypertensive effect of acetylcholine,"[1]; dose not stated, ganglioplegic substance",annulled the hypertensive effect of acetylcholine
CCc1oc2ccc(Cl)cc2c1CC(=NO)NCCN1CCOCC1 [2-(2-Ethyl-5-chloro-3-benzofuranyl)-N-(2-morpholino-ethyl)-acetamidoxime],Fall in A.P.,[2],21 mm.Hg
Cc1oc2ccccc2c1CC(=NO)NCCN1CCOCC1 [2-(2-Methyl-3-benzofuranyl)-N-(2-morpholino-ethyl)-acetamidoxime],Fall in A.P.,[2],25 mm.Hg
"CCc1oc2ccccc2c1CC(=NO)NCCN1CCOCC1 [L 9552, 2-(2-ethyl-3-benzofuranyl)-N-(2-morpholino-ethyl)-acetamidoxime]",LD0,Rat; intragastric,"1,100 mg/kg"
same,LD95,Rat; intragastric,"2,500 mg/kg"
same,LD0,Rat; intraperitoneal,80 mg/kg
same,LD95,Rat; intraperitoneal,350 mg/kg
same,effect on the hypertensive effect of acetylcholine,"[1]; 5 mg/kg intravenous, 1 mg/kg acetylcholine",did not alter the hypertensive effect
same,Maximum fall in A.P.,[3]; daily doses (11 days) 25 mg/kg,15 mm.Hg
same,Maximum fall in A.P.,[3]; daily doses (11 days) 50 mg/kg,30 mm.Hg
same,Maximum fall in A.P.,[3]; daily doses (11 days) 100 mg/kg,49 mm.Hg
same,Maximum fall in A.P.,[3]; single dose 25 mg/kg,18 mm.Hg
same,Maximum fall in A.P.,[3]; single dose 50 mg/kg,26 mm.Hg
same,Maximum fall in A.P.,[3]; single dose 100 mg/kg,45 mm.Hg
same,Urinary excretion,male albino rats; 10 mg/kg,84%
same,Urinary excretion,male albino rats; 20 mg/kg,102%
same,Urinary excretion,male albino rats; 50 mg/kg,118%
same,Urinary excretion,male albino rats; 100 mg/kg,138%
same,Urinary excretion,male albino rats; 200 mg/kg,165%
same,Fall in A.P.,[2],36 mm.Hg
same,Maximum fall in A.P.,[2]; daily doses (11 days) 10 mg/kg,18 mm.Hg
same,Maximum fall in A.P.,[2]; daily doses (11 days) 25 mg/kg,32 mm.Hg
same,Maximum fall in A.P.,[2]; daily doses (11 days) 50 mg/kg,47 mm.Hg
same,Maximum fall in A.P.,[2]; single dose 10 mg/kg,14 mm.Hg
same,Maximum fall in A.P.,[2]; single dose 25 mg/kg,36 mm.Hg
same,Maximum fall in A.P.,[2]; single dose 50 mg/kg,55 mm.Hg
same,LD0,Mouse; intragastric,250 mg/kg
same,LD95,Mouse; intragastric,"1,250 mg/kg"
same,LD0,Mouse; intraperitoneal,30 mg/kg
same,LD95,Mouse; intraperitoneal,110 mg/kg
same,"effect on intensity of contractions of the nictitating membrane (adrenaline, electric stimulation)",[4],did not modify the intensity of the contractions of the membrane
same,Maximum fall in A.P.,[5]; daily doses (11 days) 10 mg/kg,17 mm.Hg
same,Maximum fall in A.P.,[5]; daily doses (11 days) 25 mg/kg,35 mm.Hg
same,Maximum fall in A.P.,[5]; single dose 10 mg/kg,18 mm.Hg
same,Maximum fall in A.P.,[5]; single dose 25 mg/kg,37 mm.Hg
same,Maximum fall in A.P.,[5]; single dose 50 mg/kg,56 mm.Hg
same,Maximum fall in A.P.,[6]; daily doses (11 days) 5 mg/kg,0 mm.Hg
same,Maximum fall in A.P.,[6]; daily doses (11 days) 10 mg/kg,26 mm.Hg
same,Maximum fall in A.P.,[6]; daily doses (11 days) 20 mg/kg,47 mm.Hg
same,activity in genetic hypertension,"[6]; rat, in vivo",especially active
same,Maximum fall in A.P.,[6]; single dose 5 mg/kg,16 mm.Hg
same,Maximum fall in A.P.,[6]; single dose 10 mg/kg,35 mm.Hg
same,Maximum fall in A.P.,[6]; single dose 20 mg/kg,52 mm.Hg
same,activity in the five types of experimentally induced hypertension,[7],active
same,Na^+ /K^+ Ratio,albino male rats; 10 mg/kg,1.09
same,K^+ excretion,albino male rats; 10 mg/kg,15.3 mEq/l.
same,Na^+ excretion,albino male rats; 10 mg/kg,24.8 mEq/l.
same,Urinary excretion,albino male rats; 10 mg/kg,55%
same,Na^+ /K^+ Ratio,albino male rats; 20 mg/kg,1.66
same,K^+ excretion,albino male rats; 20 mg/kg,17.5 mEq/l.
same,Na^+ excretion,albino male rats; 20 mg/kg,43.0 mEq/l.
same,Urinary excretion,albino male rats; 20 mg/kg,80%
same,Na^+ /K^+ Ratio,albino male rats; 50 mg/kg,2.50
same,K^+ excretion,albino male rats; 50 mg/kg,15.0 mEq/l.
same,Na^+ excretion,albino male rats; 50 mg/kg,55.6 mEq/l.
same,Urinary excretion,albino male rats; 50 mg/kg,95%
same,Na^+ /K^+ Ratio,albino male rats; 100 mg/kg,3.37
same,K^+ excretion,albino male rats; 100 mg/kg,14.3 mEq/l.
same,Na^+ excretion,albino male rats; 100 mg/kg,71.3 mEq/l.
same,Urinary excretion,albino male rats; 100 mg/kg,137%
same,Na^+ /K^+ Ratio,albino male rats; 200 mg/kg,3.34
same,K^+ excretion,albino male rats; 200 mg/kg,15.8 mEq/l.
same,Na^+ excretion,albino male rats; 200 mg/kg,78.0 mEq/l.
same,Urinary excretion,albino male rats; 200 mg/kg,124%
same,sodium-excretion index,"albino male rats; rat, in vivo",very favourable
same,Maximum fall in A.P.,[8]; daily doses (11 days) 10 mg/kg,13 mm.Hg
same,Maximum fall in A.P.,[8]; daily doses (11 days) 25 mg/kg,26 mm.Hg
same,Maximum fall in A.P.,[8]; daily doses (11 days) 50 mg/kg,53 mm.Hg
same,Maximum fall in A.P.,[8]; single dose 10 mg/kg,14 mm.Hg
same,Maximum fall in A.P.,[8]; single dose 25 mg/kg,27 mm.Hg
same,Maximum fall in A.P.,[8]; single dose 50 mg/kg,54 mm.Hg
CCCCN(CCCC)CCNC(Cc1c(CC)oc2ccccc12)=NO [2-(2-Ethyl-3-benzofuranyl)-N-(2-di-n-butylamine-ethyl)-acetamidoxime],Fall in A.P.,[2],27 mm.Hg
"CCCN1CCN(C(=N)Cc2c(CC)oc3ccccc23)CC1 [2-(2-ethyl-3-benzofuranyl)-N,N-(3-n-propyl-3-aza-pentamethylene)-acetamidine dihydrochloride, reference compound]",activity in the treatment of experimentally induced hypertension,[9],pharmacologically active
same,fall in arterial pressure,[2]; 50 mg/kg,14 mm.Hg
same,fall in arterial pressure,[2]; 200 mg/kg,24 mm.Hg
"NS(=O)(=O)c1cc2c(cc1Cl)NCNS2(=O)=O [hydrochlorothiazide, reference compound]",activity in this test,[2]; 200 mg/kg,inactive
